Key:
Type in all cases: in vivo, Lewis rats
[1] = Body weight of CIA rats fed PA crude extracts (Embodiment 2); details: gavage from about Day 20 until Day 45, PA-H 375, PA-L 75, indomethacin 2.5 mg/kg/day, FIG. 3
Procedure: The test animals, Lewis rats, 8 weeks old and about 155-165 g in weight, were all purchased from National Laboratory Animal Center. They were raised in an animal house with a 12-hour light/12-hour dark cycle, a room temperature of 23±1° C., moderate moisture, and good air conditioning, wherein water and feed were provided ad libitum. In addition, during the operation, all the test animals conformed to the criteria of the International Committee on Laboratory Animals' standard regulation. The animal test scheme is shown as FIG. 2. Bovine collagen Type II (Bovine C II) was dissolved in 0.1 M acetic acid solution, stirred to dissolve thoroughly, and formulated into solutions with concentrations of 1.5 and 3 mg/ml, which were stored in 4° C. for later use. For the first immune injection, 100 μl of C II solution was emulsified with an equal amount of CFA, and injected subcutaneously (200 μl/rat) in the root portions of tails of the rats after the emulsification was complete. […] After about 15 days, the second immunization was done. 100 μl of C II solution was emulsified with an equal amount of IFA, and injected subcutaneously (200 μl/rat) in the root portions of tails of the rats after the emulsification was complete. Approximately from Day 20, the symptoms of arthritis were observed (CIA rats), and PA and indomethacin were fed until Day 45. [table] 1. […]

CIA rats = experiment: Maximum arthritic index (MAI) of CIA rats fed PA crude extracts (Embodiment 2); details: gavage until Day 45, PA-H 375, PA-L 75, indomethacin 2.5 mg/kg/day, FIG. 4
Procedure: The animal test scheme is shown as FIG. 2. Bovine collagen Type II (Bovine C II) was dissolved in 0.1 M acetic acid solution, stirred to dissolve thoroughly, and formulated into solutions with concentrations of 1.5 and 3 mg/ml, which were stored in 4° C. for later use. For the first immune injection, 100 μl of C II solution was emulsified with an equal amount of CFA, and injected subcutaneously (200 μl/rat) in the root portions of tails of the rats after the emulsification was complete. […] After about 15 days, the second immunization was done. 100 μl of C II solution was emulsified with an equal amount of IFA, and injected subcutaneously (200 μl/rat) in the root portions of tails of the rats after the emulsification was complete. Approximately from Day 20, the symptoms of arthritis were observed (CIA rats), and PA and indomethacin were fed until Day 45. [table] 2. Evaluation of RA examination: evaluated in maximum arthritic index (MAI) After immunization, the rats were observed three times a week. The changes of redness and swelling or the like in limbs were recorded, and photographs were taken and filed for comparison. […] Maximum arthritic index, average MAI for each group was calculated as follows: Average MAI=Total of MAI recorded in limbs of each rat (0: no CIA occurs, 16: highest score)/4/total rat number of each group

TNF-α = experiment: Abdominal cavity cell (PEC) culture, cytokine TNF-α, CIA rats fed PA crude extracts (Embodiment 2); details: LPS 10 μg/ml, 24 hours, FIG. 8
Procedure: The animal test scheme is shown as FIG. 2. Bovine collagen Type II (Bovine C II) was dissolved in 0.1 M acetic acid solution, stirred to dissolve thoroughly, and formulated into solutions with concentrations of 1.5 and 3 mg/ml, which were stored in 4° C. for later use. For the first immune injection, 100 μl of C II solution was emulsified with an equal amount of CFA, and injected subcutaneously (200 μl/rat) in the root portions of tails of the rats after the emulsification was complete. […] After about 15 days, the second immunization was done. 100 μl of C II solution was emulsified with an equal amount of IFA, and injected subcutaneously (200 μl/rat) in the root portions of tails of the rats after the emulsification was complete. Approximately from Day 20, the symptoms of arthritis were observed (CIA rats), and PA and indomethacin were fed until Day 45. [table] 1. After carbon dioxide euthanasia, the outer furs of the rat abdominal cavity were cut out by scissors, to expose the whole abdominal cavity. 2. HBSS buffer was injected into the abdominal cavity batch-wise by a 10 ml syringe to make a total volume of about 20 ml/rat. 3. The abdominal cavity of the rat was opened after the abdomen was gently kneaded. An incision of about 2 cm was made in the abdominal cavity by using scissors. […] The concentrations of cytokine TNF-α, IL-6, and IL-1β were analyzed by using ELISA kit.

Q: With `COc1ccc2c(c1)c(CC(=O)O)c(C)n2C(=O)c1ccc(Cl)cc1` [indomethacin, Indomethacin] as the compound, how does the “effect on the body weight of CIA rats (weight reduction)” value [1] read?
A: The value was “weight reduction is efficiently avoided”.

Q: What about the “effect on the arthritic indices (MAI) of CIA rats” value (CIA rats) of the same compound?
A: The value was “most preferred”.

Q: And the “inhibition of PEC secreting TNF-α” value (TNF-α)?
A: The value was “no effect of inhibiting PEC from secreting inflammatory cytokine”.
